Experimental data as given in patent US12686673B2 (Blueprint Medicines Corporation, priority 2020, dated 2026).
Where a name gives a salt, the structure may show the parent alone. Read-outs that look alike come from different tables or passages of the source.

Assays:
Type in all cases: cell-based
A431 cells = test: Cellular proliferation (Alamar Blue) assay, A431
[1] = target: HER2 (A775_G776insYVMA) expressing Ba/F3 stable cell line (Homo sapiens, UniProt P04626, DUP772-775, cells depend on it); test: Cellular proliferation (Alamar Blue) assay, HER2 A775_G776insYVMA Ba/F3; conditions: 72 hr, read-out: YVMA IC50
Sequence of HER2 (A775_G776insYVMA) expressing Ba/F3 stable cell line (P04626 with tags, fused parts or gaps DUP772-775): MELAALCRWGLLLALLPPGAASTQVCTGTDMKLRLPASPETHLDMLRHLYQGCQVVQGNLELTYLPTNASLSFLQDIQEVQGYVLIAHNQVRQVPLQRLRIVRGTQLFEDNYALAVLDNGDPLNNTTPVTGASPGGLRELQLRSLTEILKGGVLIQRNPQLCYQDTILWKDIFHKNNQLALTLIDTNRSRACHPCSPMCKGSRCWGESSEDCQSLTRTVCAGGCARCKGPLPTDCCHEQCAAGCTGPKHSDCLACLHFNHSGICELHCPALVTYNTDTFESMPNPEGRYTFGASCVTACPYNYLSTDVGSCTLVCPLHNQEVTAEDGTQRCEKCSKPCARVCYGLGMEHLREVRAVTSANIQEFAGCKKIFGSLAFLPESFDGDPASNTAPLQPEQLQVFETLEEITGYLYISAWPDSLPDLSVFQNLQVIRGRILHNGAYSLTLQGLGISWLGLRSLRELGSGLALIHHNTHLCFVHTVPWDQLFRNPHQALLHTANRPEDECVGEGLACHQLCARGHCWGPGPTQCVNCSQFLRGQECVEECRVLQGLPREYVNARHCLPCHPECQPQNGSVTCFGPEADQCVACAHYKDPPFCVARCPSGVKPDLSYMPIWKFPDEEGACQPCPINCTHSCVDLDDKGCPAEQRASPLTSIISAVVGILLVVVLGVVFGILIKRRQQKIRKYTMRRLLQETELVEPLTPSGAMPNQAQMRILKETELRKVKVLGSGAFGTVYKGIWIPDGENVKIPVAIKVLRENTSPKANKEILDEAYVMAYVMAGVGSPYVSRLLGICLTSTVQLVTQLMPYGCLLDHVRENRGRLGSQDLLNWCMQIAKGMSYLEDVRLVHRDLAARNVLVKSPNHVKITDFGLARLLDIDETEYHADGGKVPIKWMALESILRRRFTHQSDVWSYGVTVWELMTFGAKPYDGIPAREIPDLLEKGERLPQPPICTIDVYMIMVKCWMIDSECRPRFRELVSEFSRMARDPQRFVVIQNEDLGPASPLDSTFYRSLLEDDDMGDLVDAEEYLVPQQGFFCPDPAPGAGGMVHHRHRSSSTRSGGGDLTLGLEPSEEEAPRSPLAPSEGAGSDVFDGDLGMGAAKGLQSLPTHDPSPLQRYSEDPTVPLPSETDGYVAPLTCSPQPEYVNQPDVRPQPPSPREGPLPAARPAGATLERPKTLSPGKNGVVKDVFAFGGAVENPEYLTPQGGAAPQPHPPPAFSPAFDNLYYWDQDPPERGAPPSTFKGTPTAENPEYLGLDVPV
Description: • 1. EGFR(D770_N771insSVD) expressing Ba/F3 stable cell line • 2. EGFR (A767_dupASV) expressing Ba/F3 stable cell line • 3. A431 cells • 4. EGFR (H773insNPH) expressing Ba/F3 stable cell line • 5. HER2 (A775_G776insYVMA) expressing Ba/F3 stable cell line Assay Procedure: • 1. Seed cells at 5000 for A431 and 15,000 cells for Ba/F3 in 100 μL/well in complete media (for A431: DMEM with […] and for Ba/F3 cells: RPMI with 10% FBS) in 96-well tissue culture plate. Leave outer wells without cells for background measurements. Incubate at 37 degree Celsius in […] humidified incubator for 16-18 hours. • 2. Add 0.025 ml of 5× concentration compound dilution or DMSO control. Final compound concentration range is 10-0.0005 μM prepared in 3-fold serial dilutions. Incubate for 72 hr at 37 degree Celsius in […] humidified incubator. • 3. Add 0.0125 ml Alamar Blue™ reagent to each well with multi-channel pipette and tap gently on each side of the plate to mix. Incubate for 3 hours at 37 degree Celsius in 5% CO2 humidified incubator. • 4. […] Data analysis was performed using XLfit 5.5.0.5.

[2] = target: EGFR (A767_dupASV) expressing Ba/F3 stable cell line (Homo sapiens, UniProt P00533, DUP767-769, cells depend on it); test: Cellular proliferation (Alamar Blue) assay, EGFR A767_dupASV Ba/F3; conditions: 72 hr, read-out: A767 IC50
Sequence of EGFR (A767_dupASV) expressing Ba/F3 stable cell line (P00533 with tags, fused parts or gaps DUP767-769): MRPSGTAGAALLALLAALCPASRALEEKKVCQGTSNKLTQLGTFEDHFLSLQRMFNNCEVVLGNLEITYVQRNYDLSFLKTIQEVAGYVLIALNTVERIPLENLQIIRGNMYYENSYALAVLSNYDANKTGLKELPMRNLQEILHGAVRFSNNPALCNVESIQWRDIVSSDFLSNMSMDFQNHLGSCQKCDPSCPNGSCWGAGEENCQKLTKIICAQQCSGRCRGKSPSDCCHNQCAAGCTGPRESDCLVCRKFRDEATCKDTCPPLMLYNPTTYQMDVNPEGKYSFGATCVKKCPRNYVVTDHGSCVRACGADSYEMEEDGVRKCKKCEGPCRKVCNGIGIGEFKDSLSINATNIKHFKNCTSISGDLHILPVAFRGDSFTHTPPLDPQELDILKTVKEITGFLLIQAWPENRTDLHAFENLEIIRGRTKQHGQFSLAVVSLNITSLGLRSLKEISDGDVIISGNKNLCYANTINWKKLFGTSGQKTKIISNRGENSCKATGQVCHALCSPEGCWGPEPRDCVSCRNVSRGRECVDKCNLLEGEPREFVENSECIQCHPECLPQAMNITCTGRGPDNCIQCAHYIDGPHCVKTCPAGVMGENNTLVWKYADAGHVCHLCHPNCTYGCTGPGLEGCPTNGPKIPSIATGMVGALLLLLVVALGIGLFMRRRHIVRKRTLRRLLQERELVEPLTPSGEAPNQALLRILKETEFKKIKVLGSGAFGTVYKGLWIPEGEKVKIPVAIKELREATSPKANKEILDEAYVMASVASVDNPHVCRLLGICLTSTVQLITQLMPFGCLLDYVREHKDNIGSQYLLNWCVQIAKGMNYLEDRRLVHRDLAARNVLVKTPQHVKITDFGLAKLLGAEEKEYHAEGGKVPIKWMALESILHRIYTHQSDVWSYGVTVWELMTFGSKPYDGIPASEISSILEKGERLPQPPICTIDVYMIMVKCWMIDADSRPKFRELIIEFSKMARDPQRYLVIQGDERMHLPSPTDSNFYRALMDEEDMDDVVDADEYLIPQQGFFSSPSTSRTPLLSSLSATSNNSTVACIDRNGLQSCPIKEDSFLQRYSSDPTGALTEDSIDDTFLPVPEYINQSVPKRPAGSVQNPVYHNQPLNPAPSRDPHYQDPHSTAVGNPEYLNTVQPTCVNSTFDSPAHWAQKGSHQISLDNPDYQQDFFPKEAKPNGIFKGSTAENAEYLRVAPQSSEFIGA
Outline: (§1)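 Steps: plate 15,000 Ba/F3 cells/well in RPMI/10% FBS; rest 16-18 h, 37 °C; add compound at final 10-0.0005 μM (3-fold series) or DMSO; incubate 72 hr; add Alamar Blue; read after 3 h.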

[3] = target: EGFR(D770_N771insSVD) expressing Ba/F3 stable cell line (Homo sapiens, UniProt P00533, DUP768-770, cells depend on it); test: Cellular proliferation (Alamar Blue) assay, EGFR D770_N771insSVD Ba/F3; conditions: 72 hr, read-out: D770 IC50
Sequence of EGFR(D770_N771insSVD) expressing Ba/F3 stable cell line (P00533 with tags, fused parts or gaps DUP768-770): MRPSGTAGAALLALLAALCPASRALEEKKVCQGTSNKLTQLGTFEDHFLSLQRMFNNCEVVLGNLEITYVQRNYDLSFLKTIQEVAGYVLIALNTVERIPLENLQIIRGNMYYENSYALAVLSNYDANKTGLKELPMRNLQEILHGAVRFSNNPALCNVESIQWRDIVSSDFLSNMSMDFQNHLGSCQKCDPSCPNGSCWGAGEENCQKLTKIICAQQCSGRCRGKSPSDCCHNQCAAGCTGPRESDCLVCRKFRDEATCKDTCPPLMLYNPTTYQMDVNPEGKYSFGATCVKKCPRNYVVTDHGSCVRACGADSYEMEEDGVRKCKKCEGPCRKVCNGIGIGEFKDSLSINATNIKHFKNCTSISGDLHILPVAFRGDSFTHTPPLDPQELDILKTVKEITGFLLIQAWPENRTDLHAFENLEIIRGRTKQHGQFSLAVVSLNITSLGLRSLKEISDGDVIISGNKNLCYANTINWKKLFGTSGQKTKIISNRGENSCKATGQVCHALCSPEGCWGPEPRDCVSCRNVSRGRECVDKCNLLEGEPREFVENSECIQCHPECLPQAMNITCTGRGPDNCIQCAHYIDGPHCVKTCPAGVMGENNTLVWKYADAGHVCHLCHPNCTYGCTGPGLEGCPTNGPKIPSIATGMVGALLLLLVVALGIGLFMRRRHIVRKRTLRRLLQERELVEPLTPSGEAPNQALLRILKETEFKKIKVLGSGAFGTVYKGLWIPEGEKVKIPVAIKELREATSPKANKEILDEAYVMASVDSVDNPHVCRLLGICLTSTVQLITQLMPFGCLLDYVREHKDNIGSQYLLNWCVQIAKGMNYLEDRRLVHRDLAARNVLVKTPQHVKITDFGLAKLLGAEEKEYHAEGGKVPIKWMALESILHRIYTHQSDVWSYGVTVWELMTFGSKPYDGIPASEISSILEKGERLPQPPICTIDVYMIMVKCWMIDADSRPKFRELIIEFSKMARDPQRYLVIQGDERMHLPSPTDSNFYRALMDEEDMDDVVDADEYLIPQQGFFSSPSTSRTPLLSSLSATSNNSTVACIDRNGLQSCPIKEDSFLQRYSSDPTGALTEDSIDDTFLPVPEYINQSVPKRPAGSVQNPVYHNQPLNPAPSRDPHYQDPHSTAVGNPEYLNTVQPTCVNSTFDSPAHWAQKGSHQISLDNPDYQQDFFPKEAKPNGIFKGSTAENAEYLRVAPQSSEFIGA
Outline: as §1

[4] = Homo sapiens, A-431; A431 cells, Alamar Blue, 72 hr; read-out: A431 IC50
[5] = Homo sapiens, A-431; A431 cells, 72 hr, Alamar Blue; read-out: A431 IC50

IC50 (A431 cells; [4]) [nM]	GI50 [1] [nM]	GI50 [2] [nM]	GI50 [3] [nM]	IC50 (A431 cells; [5]) [nM]	SMILES
> 10000	> 10000	> 10000	> 10000		C=CC(=O)Nc1ccc(OC)c(Oc2nc(Nc3cnn(C)c3)ncc2Cl)c1 [Compound 172, N-[3-({5-chloro-2-[(1-methyl-1H-pyrazol-4-yl)amino]pyrimidin-4-yl}oxy)-4-methoxyphenyl] prop-2-enamide]
	3010	90	312	617	C=CC(=O)Nc1cc(Nc2nc(Nc3cnn(C)c3)ncc2-c2ccc(C(F)(F)F)cc2)ccc1F [Compound 238, N-(2-fluoro-5-((2-((1-methyl-1H-pyrazol-4-yl)amino)-5-(4-(trifluoromethyl)phenyl)pyrimidin-4-yl)amino)phenyl)acrylamide]
	2250	2180	1890	1810	C=CC(=O)Nc1ccc(F)c(Nc2nc(Nc3cnn(C)c3)ncc2C#CC2CC2)c1 [Compound 244, N-(3-{[5-(2-cyclopropylethynyl)-2-[(1-methyl-1H-pyrazol-4-yl)amino]pyrimidin-4-yl]amino}-4-fluorophenyl)prop-2-enamide]
> 10000	9710	> 10000	> 10000		C=CC(=O)Nc1ccc(OC)c(Oc2nc(Nc3cnn(C4CCN(C)CC4)c3)ncc2Cl)c1 [Compound 170, N-(3-((5-chloro-2-((1-(1-methylpiperidin-4-yl)-1H-pyrazol-4-yl)amino)pyrimidin-4-yl)oxy)-4-methoxyphenyl)acrylamide]
	210	38	34	6	C=CC(=O)Nc1cc(F)cc(Nc2nc(Nc3cnn(C)c3)ncc2-c2ccc(CC(F)(F)F)cc2)c1 [Compound 295, N-(3-fluoro-5-((2-((1-methyl-1H-pyrazol-4-yl)amino)-5-(4-(2,2,2-trifluoroethyl)phenyl)pyrimidin-4-yl)amino)phenyl)acrylamide]
	204	47	34	65	[2H]C([2H])=CC(=O)Nc1ccc(F)c(Nc2nc(Nc3cnn(C)c3)ncc2-c2ccc(Br)cc2)c1 [Compound 250, N-(3-((5-(4-bromophenyl)-2-((1-methyl-1H-pyrazol-4-yl)amino)pyrimidin-4-yl)amino)-4-fluorophenyl)acrylamide-3,3-d2]
	251	91	36	229	C=CC(=O)Nc1cc(F)cc(Nc2nc(Nc3cnn(C)c3)ncc2-c2ccc(C(F)(F)F)cc2)c1 [Compound 239, N-(3-fluoro-5-((2-((1-methyl-1H-pyrazol-4-yl)amino)-5-(4-(trifluoromethyl)phenyl)pyrimidin-4-yl)amino)phenyl)acrylamide]
	3580	2900	2840	4480	C=CC(=O)Nc1ccc(F)c(Nc2cc(Nc3cnn(C)c3)ncc2-c2ccc(C(F)(F)F)cc2)c1 [Compound 210, N-[4-fluoro-3-({2-[(1-methyl-1H-pyrazol-4-yl)amino]-5-[4-(trifluoromethyl)phenyl]pyridin-4-yl}amino)phenyl]prop-2-enamide]

The next lines start with the molecule.

SMILES	IC50 (A431 cells; [4]) [nM]	GI50 [1] [nM]	GI50 [2] [nM]	GI50 [3] [nM]	IC50 (A431 cells; [5]) [nM]
C=CC(=O)Nc1cccc(Oc2nc(Nc3cnn(C)c3)cnc2C)c1 [Compound 158, N-(3-((3-methyl-6-((1-methyl-1H-pyrazol-4-yl)amino)pyrazin-2-yl)oxy)phenyl)acrylamide]	> 10000	> 10000	> 10000	> 10000	
CC(NC(=O)c1cnc(Nc2cnn(C)c2)nc1Nc1cccc(NC(=O)/C=C/CN(C)C)c1)c1ccccc1 (stereo not shown) [Compound 35, (E)-4-((3-(4-(dimethylamino)but-2-enamido)phenyl)amino)-2-((1-methyl-1H-pyrazol-4-yl)amino)-N-(1-phenylethyl)pyrimidine-5-carboxamide]	> 10000	> 10000	> 10000	> 10000	
C=CC(=O)Nc1ccc(F)c(Nc2nc(Nc3ccn(C)n3)ncc2Cl)c1 [Compound 30, N-(3-((5-chloro-2-((1-methyl-1H-pyrazol-3-yl)amino)pyrimidin-4-yl)amino)-4-fluorophenyl)acrylamide]	> 10000	2640	9630	> 10000	
CN(C)C/C=C/C(=O)Nc1ccc(F)c(Nc2nc(Nc3cnn(CCO)c3)ncc2Cl)c1 [Compound 16, (E)-N-(3-((5-chloro-2-((1-(2-hydroxyethyl)-1H-pyrazol-4-yl)amino)pyrimidin-4-yl)amino)-4-fluorophenyl)-4-(dimethylamino)but-2-enamide]	9040	1700	8840	9060	
C=CC(=O)Nc1ccc(F)c(Nc2nc(Nc3cnn(CCO)c3)ncc2Cl)c1 [Compound 15, N-(3-((5-chloro-2-((1-(2-hydroxyethyl)-1H-pyrazol-4-yl)amino)pyrimidin-4-yl)amino)-4-fluorophenyl)acrylamide]	4220	543	371	373	
CN(C)C/C=C/C(=O)Nc1ccc(F)c(Nc2nc(Nc3cnn(C4CCC(O)CC4)c3)ncc2Cl)c1 (stereo not shown) [Compound 5, (E)-N-(3-((5-chloro-2-((1-(4-hydroxycyclohexyl)-1H-pyrazol-4-yl)amino)pyrimidin-4-yl)amino)-4-fluorophenyl)-4-(dimethylamino)but-2-enamide]	> 10000	4280	7380	5580	
C=CC(=O)Nc1ccc(F)c(Oc2nc(Nc3cnn(CCO)c3)ncc2Cl)c1 [Compound 167, N-(3-((5-chloro-2-((1-(2-hydroxyethyl)-1H-pyrazol-4-yl)amino)pyrimidin-4-yl)oxy)-4-fluorophenyl)acrylamide]	> 10000	1750	1330	2150	
C=CC(=O)Nc1ccc(F)c(Oc2nc(Nc3cnn(C4CCN(C)CC4)c3)ncc2Cl)c1 [Compound 168, N-(3-((5-chloro-2-((1-(1-methylpiperidin-4-yl)-1H-pyrazol-4-yl)amino)pyrimidin-4-yl)oxy)-4-fluorophenyl)acrylamide]	> 10000	2260	904	929	
C=CC(=O)Nc1ccc(F)c(Nc2nc(Nc3cnn(C)c3)ncc2-c2cccc3ccccc23)c1 [Compound 136, N-(4-fluoro-3-((2-((1-methyl-1H-pyrazol-4-yl)amino)-5-(naphthalen-1-yl)pyrimidin-4-yl)amino)phenyl)acrylamide trifluoroacetate]	40	412	299	106	
C=CC(=O)Nc1ccc(F)c(Nc2nc(Nc3cnn(C)c3)ncc2-c2ccc3ccccc3c2)c1 [Compound 149, N-(4-fluoro-3-((2-((1-methyl-1H-pyrazol-4-yl)amino)-5-(naphthalen-2-yl)pyrimidin-4-yl)amino)phenyl)acrylamide trifluoroacetate]	469	501	747	308	
C=CC(=O)Nc1ccc(F)c(Nc2nc(Nc3cnn(C)c3)ncc2-c2ccc(C3CC3)cc2)c1 [Compound 128, N-(3-((5-(4-cyclopropylphenyl)-2-((1-methyl-1H-pyrazol-4-yl)amino)pyrimidin-4-yl)amino)-4-fluorophenyl)acrylamide trifluoroacetate]	64	654	114	101	
C=CC(=O)Nc1ccc(F)c(Nc2nc(Nc3cnn(C)c3)ncc2-c2ccc3cccnc3c2)c1 [Compound 131, N-(4-fluoro-3-((2-((1-methyl-1H-pyrazol-4-yl)amino)-5-(quinolin-7-yl)pyrimidin-4-yl)amino)phenyl)acrylamide]	365	348	758	202	
C=CC(=O)Nc1cccc(Nc2nc(Nc3cnn(C)c3)ncc2C(C)N(Cc2ccccc2)C(C)=O)c1 (stereo not shown) [Compound 47, N-(3-((5-(1-(N-benzylacetamido)ethyl)-2-((1-methyl-1H-pyrazol-4-yl)amino)pyrimidin-4-yl)amino)phenyl)acrylamide]	> 10000	> 10000	7080	8850	
C=CC(=O)Nc1ccc(F)c(Nc2nc(Nc3cnn(C)c3)ncc2-c2ccc(OC)nc2)c1 [Compound 86, N-(4-fluoro-3-((5-(6-methoxypyridin-3-yl)-2-((1-methyl-1H-pyrazol-4-yl)amino)pyrimidin-4-yl)amino)phenyl)acrylamide]	49	185	39	36	
